Data: patent US20250275986A1, “COMBINATION OF A KETONE BODY OR KETOGENIC COMPOUND WITH AN ANALGESIC OR ANTIOXIDANT” (KETOSWISS AG, priority 2021, published 2025)

Test system: headache during an acute migraine attack
Assay: Intensity of the headache (visual analogue scale 0 to 10) during acute migraine attacks in one migraine patient after intake of the substance(s)
Format: in vivo, human
Experimental: During the course of the trial, the patient had 17 recorded acute migraine attacks which were treated by either one of the following nine treatment regimes: • 1. 13 g flavoured mix of β-hydroxbutyrate (βHB) mineral salts termed “MigraKet” (a ketone body) • 2. 500 mg acetylsalicylic acid (a simple analgesic) • 3. 400 mg ibuprofen (a simple analgesic) • 4. 13 g MigraKet+500 mg acetylsalicylic acid (combination of a ketone body and a simple analgesic) • 5. 13 g MigraKet+400 mg ibuprofen (combination of a ketone body and a simple analgesic) • 6. 2.5 mg frovatriptan (a triptan) • 7. 13 g MigraKet+2.5 mg frovatriptan (combination of a ketone body and a triptan) • 8. 9 mg melatonin • 9. 13 g MigraKet+9 mg melatonin (combination of a ketone body and an antioxidant such as melatonin) The “MigraKet” consisted of:
10g of a sodium, potassium, magnesium and calcium D-βHB mineral mix in a 1:1:2:2 ratio, and 3g of flavour (malic acid and natural lemon and lime flavour sweetend by stevia), dissolved in 0.51 of still water.
The intensity of the headache (pain) was recorded at the time of intake of the substance(s) (0h), and at five subsequent time-points during the course of one day (2h, 4 h, 8h, 12 h, 24h after substance intake). The intensity of the headache (pain) was categorized on a visual analogue scale from 0 (“no pain”) to 10 (“worst pain imaginable”). […]

Row | Structure (SMILES) | time for which the headache was eliminated (after intake, melatonin with βHB: in 1 out of 2 instances, b14: taken when intensity about 0 to about 4) | effect on the headache in words (over the course of 24 hours)
1 | CN[C@@H]1CCc2[nH]c3ccc(C(N)=O)cc3c2C1 [Frovatriptan, frovatriptan] | less than 12 h | –
2 | COc1ccc2[nH]cc(CCNC(C)=O)c2c1 [Melatonin, N-[2-(5-Methoxyindol-3-yl)ethyl]acetamid] | – | did not ameliorate the headache
